Assay results: patent US12565501B2, “Muscarinic acetylcholine M1 receptor antagonists” (Contineum Therapeutics, Inc., priority 2019, dated 2026)

Target: T1, human M1 receptor (Homo sapiens, UniProt P11229)
T1 sequence (P11229 1-460): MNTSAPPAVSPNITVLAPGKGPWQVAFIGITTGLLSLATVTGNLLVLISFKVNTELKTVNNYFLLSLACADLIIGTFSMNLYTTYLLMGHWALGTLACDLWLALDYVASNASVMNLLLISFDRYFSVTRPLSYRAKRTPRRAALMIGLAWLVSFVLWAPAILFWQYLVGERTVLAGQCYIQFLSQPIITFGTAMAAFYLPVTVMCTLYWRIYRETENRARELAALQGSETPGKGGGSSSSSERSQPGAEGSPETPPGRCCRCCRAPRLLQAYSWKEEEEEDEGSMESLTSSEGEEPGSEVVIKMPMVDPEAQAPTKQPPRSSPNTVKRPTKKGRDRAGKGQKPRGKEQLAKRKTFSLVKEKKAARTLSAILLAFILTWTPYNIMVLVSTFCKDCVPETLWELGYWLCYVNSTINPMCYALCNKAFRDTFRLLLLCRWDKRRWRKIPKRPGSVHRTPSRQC
Test: In vitro functional assay of muscarinic acetylcholine receptor activity (aequorin calcium flux, reversal of EC80 acetylcholine response)
Type: cell-based
Conditions: CHO-K1 cells stably expressing human M1 receptor with aequorin; acetylcholine at EC80; calcium flux (luminescence); read-out: M1 IC50
Protocol: CHO-K1 cells stably expressing human M1 receptor with aequorin (Perkin Elmer) were grown in F12 media (Gibco) containing 10% FBS (ATCC), 0.4 mg/mL geneticin (Sigma-Aldrich) and 0.25 mg/mL Zeocin (Invitrogen). Cells were grown as per the manufacturer's protocol. For compound testing, cells were grown to confluency and detached gently with Accutase (Sigma-Aldrich) followed by centrifugation for 5 min at 150× g. Cells were then re-suspended in assay buffer (i.e. DMEM/F-12 HEPES without phenol red (Invitrogen) with 0.1% BSA (Sigma-Aldrich)) at a density of 5×10^6 cells/ml. Under sterile conditions, 5 μM coelenterazine (Invitrogen) was added to the cells, mixed, then incubated at room temperature protected from light, with gentle agitation, for 4 h.
Primary compound plates were prepared in 100% DMSO in opaque 96-well plates (VWR) and serially diluted in half log increments. Secondary compound plates were prepared at 3× concentration in assay buffer. Compounds were added to white, clear bottom tissue culture treated 96-well plates (Fisher Scientific). Coelenterazine-loaded cells were then added at 5×10^5 cells/well.
Compounds and cells were incubated at room temperature for 30 min in the dark. Acetylcholine at the EC80 concentration was added and calcium flux measured using a FlexStation 3 (Molecular Devices). Sigmoidal dose-response curves were generated by measuring luminescence over 40 sec and calculating the area under the curve. Dose response curves and IC50 values were generated using Prism (GraphPad). Compounds were tested at a final concentration range of 100 μM to […] in 0.1% DMSO.

SMILES	IC50 [nM]
N#Cc1ccc(N2C3CCC2CN(C(=O)COC(c2ccc(F)c(F)c2)C(F)F)C3)nc1 (racemic) [Example 201, 6-(3-(2-(1-(3,4-difluorophenyl)-2,2-difluoroethoxy)acetyl)-3,8-diazabicyclo[3.2.1]octan-8-yl)nicotinonitrile]	10 to 100
COc1cncc(C(OCC(=O)N2CC3CCC(C2)N3c2ccc(C#N)cn2)C(F)F)c1 (racemic) [Example 202, 6-(3-(2-(2,2-difluoro-1-(5-methoxypyridin-3-yl)ethoxy)acetyl)-3,8-diazabicyclo[3.2.1]octan-8-yl)nicotinonitrile]	< 10
CC(C)(OCC(=O)N1CC2CCC(C1)N2c1ccc(C#N)cn1)c1cccc2ncnn12 (racemic) [Example 203, 6-(3-(2-((2-([1,2,4]triazolo[1,5-a]pyridin-5-yl)propan-2-yl)oxy)acetyl)-3,8-diazabicyclo[3.2.1]octan-8-yl)nicotinonitrile]	100 to 1000
CC(C)(OCC(=O)N1CC2CCC(C1)N2c1ccc(C#N)cn1)c1cccc2nccn12 (racemic) [Example 204, 6-(3-(2-((2-(imidazo[1,2-a]pyridin-5-yl)propan-2-yl)oxy)acetyl)-3,8-diazabicyclo[3.2.1]octan-8-yl)nicotinonitrile]	100 to 1000
CCC(OCC(=O)N1CC2CCC(C1)N2c1ccc(C#N)cn1)c1ccc(F)c(Br)c1 (racemic) [Example 216, 6-(3-(2-(1-(3-bromo-4-fluorophenyl)propoxy)acetyl)-3,8-diazabicyclo[3.2.1]octan-8-yl)nicotinonitrile]	< 10
CCC(OCC(=O)N1CC2CCC(C1)N2c1ccc(C#N)cn1)c1cc(F)cc(Br)c1 (racemic) [Example 218, 6-(3-(2-(1-(3-bromo-5-fluorophenyl)propoxy)acetyl)-3,8-diazabicyclo[3.2.1]octan-8-yl)nicotinonitrile]	< 10
N#Cc1ccc(N2C3CCC2CN(C(=O)COC2(c4ccc(F)c(F)c4)CCOC2)C3)nc1 (racemic) [Example 269, 6-(3-(2-((3-(3,4-difluorophenyl)tetrahydrofuran-3-yl)oxy)acetyl)-3,8-diazabicyclo [3.2.1]octan-8-yl)nicotinonitrile]	100 to 1000
CC(OCCC(=O)N1CC2CCC(C1)N2c1ccc(C#N)cn1)c1cccc2ncnn12 (racemic) [Example 308, 6-(3-(3-(1-([1,2,4]triazolo[1,5-a]pyridin-5-yl)ethoxy)propanoyl)-3,8-diazabicyclo[3.2.1]octan-8-yl)nicotinonitrile]	< 10
N#Cc1ccc(N2C3CCC2CN(C(=O)CCOC(c2cccc4ncnn24)C2CC2)C3)nc1 (racemic) [Example 309, 6-(3-(3-([1,2,4]triazolo[1,5-a]pyridin-5-yl(cyclopropyl)methoxy)propanoyl)-3,8-diazabicyclo[3.2.1]octan-8-yl)nicotinonitrile]	< 10
CC(OCCC(=O)N1CC2CCC(C1)N2c1ccc(C#N)cn1)c1cccc2ncccc12 (racemic) [Example 311, 6-(3-(3-(1-(quinolin-5-yl)ethoxy)propanoyl)-3,8-diazabicyclo[3.2.1]octan-8-yl)nicotinonitrile]	< 10
CC(OCCC(=O)N1CC2CCC(C1)N2c1ccc(C#N)cn1)c1cccc2nccnc12 (racemic) [Example 312, 6-(3-(3-(1-(quinoxalin-5-yl)ethoxy)propanoyl)-3,8-diazabicyclo[3.2.1]octan-8-yl)nicotinonitrile]	< 10
COc1cccc(C(CO)CCC(=O)N2CC3CCC(C2)N3c2ccc(C#N)cn2)c1 (racemic) [Example 317, 6-(3-(5-hydroxy-4-(3-methoxyphenyl)pentanoyl)-3,8-diazabicyclo[3.2.1]octan-8-yl)nicotinonitrile]	< 10
CC(NCCC(=O)N1CC2CCC(C1)N2c1ccc(C#N)cn1)c1ccc(F)cc1 (stereo in doubt) [Example 7, 6-(3-(3-(((S)-1-(4-fluorophenyl)ethyl)amino)propanoyl)-3,8-diazabicyclo[3.2.1]octan-8-yl)nicotinonitrile]	1000 to 10000
CC(NCC(=O)N1CC2CCC(C1)N2c1ccc(C#N)cn1)c1ccc(F)cc1F (stereo in doubt) [Example 88, 6-(3-(((S)-1-(2,4-difluorophenyl)ethyl)glycyl)-3,8-diazabicyclo[3.2.1]octan-8-yl)nicotinonitrile]	1000 to 10000
CC(COCC(=O)N1CC2CCC(C1)N2c1ccc(C#N)cn1)c1ccccc1 (stereo in doubt) [Example 185, 6-(3-(2-((S)-2-phenylpropoxy)acetyl)-3,8-diazabicyclo[3.2.1]octan-8-yl)nicotinonitrile]	100 to 1000
N#Cc1ccc(N2[C@@H]3CC[C@H]2CN(C(=O)CCNC2(c4ccccc4)CC2)C3)nc1 [Example 2, 6-(3-(3-((1-phenylcyclopropyl)amino)propanoyl)-3,8-diazabicyclo[3.2.1]octan-8-yl)nicotinonitrile]	100 to 1000
N#Cc1ccc(N2[C@@H]3CC[C@H]2CN(C(=O)CCNC2(c4cccc(F)c4)CC2)C3)nc1 [Example 4, 6-(3-(3-((1-(3-fluorophenyl)cyclopropyl)amino)propanoyl)-3,8-diazabicyclo[3.2.1]octan-8-yl)nicotinonitrile]	10 to 100
N#Cc1ccc(N2[C@@H]3CC[C@H]2CN(C(=O)CCNC2(c4ccc(F)cc4)CC2)C3)nc1 [Example 5, 6-(3-(3-((1-(4-fluorophenyl)cyclopropyl)amino)propanoyl)-3,8-diazabicyclo[3.2.1]octan-8-yl)nicotinonitrile]	10 to 100
C[C@H](NCCC(=O)N1C[C@H]2CC[C@@H](C1)N2c1ccc(C#N)cn1)c1ccc(F)cc1 [Example 6, 6-(3-(3-(((S)-1-(4-fluorophenyl)ethyl)amino)propanoyl)-3,8-diazabicyclo[3.2.1]octan-8-yl)nicotinonitrile]	1000 to 10000
C[C@H](NCCC(=O)N1C[C@H]2CC[C@@H](C1)N2c1ccc(C#N)cn1)c1ccc(F)c(F)c1 [Example 8, 6-(3-(3-(((S)-1-(3,4-difluorophenyl)ethyl)amino)propanoyl)-3,8-diazabicyclo[3.2.1]octan-8-yl)nicotinonitrile]	100 to 1000
C[C@H](NCCC(=O)N1C[C@H]2CC[C@@H](C1)N2c1ccc(C#N)cn1)c1ccc(F)cc1F [Example 9, 6-(3-(3-(((S)-1-(2,4-difluorophenyl)ethyl)amino)propanoyl)-3,8-diazabicyclo[3.2.1]octan-8-yl)nicotinonitrile]	100 to 1000
N#Cc1ccc(N2[C@@H]3CC[C@H]2CN(C(=O)CCNC2(c4ccc(Cl)c(Cl)c4)CC2)C3)nc1 [Example 10, 6-(3-(3-((1-(3,4-dichlorophenyl)cyclopropyl)amino)propanoyl)-3,8-diazabicyclo[3.2.1]octan-8-yl)nicotinonitrile]	< 10
N#Cc1ccc(N2[C@@H]3CC[C@H]2CN(C(=O)CCNC2(c4ccc(F)c(Br)c4)CC2)C3)nc1 [Example 11, 6-(3-(3-((1-(3-bromo-4-fluorophenyl)cyclopropyl)amino)propanoyl)-3,8-diazabicyclo[3.2.1]octan-8-yl)nicotinonitrile]	< 10
N#Cc1ccc(N2[C@@H]3CC[C@H]2CN(C(=O)CCNC2(c4cc(Cl)cc(Br)c4)CC2)C3)nc1 [Example 12, 6-(3-(3-((1-(3-bromo-5-chlorophenyl)cyclopropyl)amino)propanoyl)-3,8-diazabicyclo[3.2.1]octan-8-yl)nicotinonitrile]	100 to 1000
N#Cc1ccc(N2C3CCC2CN(C(=O)CCNC2(c4cccc(C#N)c4)CC2)C3)nc1 [Example 13, 6-(3-(3-((1-(3-cyanophenyl)cyclopropyl)amino)propanoyl)-3,8-diazabicyclo[3.2.1]octan-8-yl)nicotinonitrile]	10 to 100
N#Cc1ccc(C2(NCCC(=O)N3CC4CCC(C3)N4c3ccc(C#N)cn3)CC2)cc1 [Example 14, 6-(3-(3-((1-(4-cyanophenyl)cyclopropyl)amino)propanoyl)-3,8-diazabicyclo[3.2.1]octan-8-yl)nicotinonitrile]	1000 to 10000
COc1ccccc1C1(NCCC(=O)N2CC3CCC(C2)N3c2ccc(C#N)cn2)CC1 [Example 15, 6-(3-(3-((1-(2-methoxyphenyl)cyclopropyl)amino)propanoyl)-3,8-diazabicyclo[3.2.1]octan-8-yl)nicotinonitrile]	10 to 100
COc1cccc(C2(NCCC(=O)N3CC4CCC(C3)N4c3ccc(C#N)cn3)CC2)c1 [Example 16, 6-(3-(3-((1-(3-methoxyphenyl)cyclopropyl)amino)propanoyl)-3,8-diazabicyclo[3.2.1]octan-8-yl)nicotinonitrile]	10 to 100
